What was measured:
[1] = target: CYP3A4 (Homo sapiens, UniProt P08684); assay: P450-Glo CYP3A4 luciferin isopropylacetal (Luc-IP) assay
Text: To determine the inhibitory potency of compounds on CYP3A4 enzyme, the P450-Glo CYP3A4 luciferin isopropylacetal (Luc-IP) assay was used (Promega, Madison, Wis., USA, Cat. No. V9920). The assay makes use of a luminogenic isopropylacetal (IPA) substrate that is a derivative from beetle luciferin, a substrate of luciferase enzymes. The IPA substrate is converted by CYP3A4 to luciferin, which in turn reacts with luciferase to produce an amount of light that is directly proportional to the activity of CYP3A4. Compounds were serially diluted in DMSO and finally in 400 mM K2HPO4, pH 7.4. 5 μl of compound solution and 5 μl of CYP3A4/substrate solution were combined in the well of a white 384-well Optiplate (Perkin Elmer). The DMSO concentration in the assay was 0.1%. After incubation for 10 minutes at room temperature in the dark, 10 μl of NADPH regeneration system was added and incubation was continued for 10 min. Then, 20 μl of Luciferin Detection Reagent was added to stop the reaction, and incubation was continued for another 20 min. Luminescence was measured on an Envision multimode reader and IC50 values were calculated using XLfit™. […] Instead of in a 96-well plate, the assay was performed in 384-well white Perkin Elmer Optiplate (cat. no. 6007290).

[2] = target: CYP2D6 (Homo sapiens, UniProt P10635); assay: P450-Glo CYP2D6 Luc-IP assay
[3] = target: T1, Recombinant TDO (Homo sapiens, UniProt P48775); assay: Biochemical assay for TDO (NFK GreenScreen); details: 50 nM TDO, 200 μM L-tryptophan
T1 construct: Recombinant TDO (Seegers, N., et al.) and all other assay components were diluted in TDO reaction buffer
T1 sequence (P48775 whole entry): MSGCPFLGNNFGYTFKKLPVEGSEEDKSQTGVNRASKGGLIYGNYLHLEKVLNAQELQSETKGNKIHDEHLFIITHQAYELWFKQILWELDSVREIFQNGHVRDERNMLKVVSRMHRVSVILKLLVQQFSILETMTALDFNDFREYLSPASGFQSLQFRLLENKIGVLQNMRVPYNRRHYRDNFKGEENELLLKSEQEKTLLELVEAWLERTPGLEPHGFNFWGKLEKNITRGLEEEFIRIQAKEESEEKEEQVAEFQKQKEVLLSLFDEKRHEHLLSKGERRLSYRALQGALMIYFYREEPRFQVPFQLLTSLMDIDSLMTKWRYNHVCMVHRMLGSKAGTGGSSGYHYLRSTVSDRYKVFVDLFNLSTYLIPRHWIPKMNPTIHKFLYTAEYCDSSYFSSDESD
Procedure: Biochemical Assay for TDO
The NFK GreenScreen™ assay technology was also used to determine the inhibitory activity of compounds on TDO (Seegers, N., et al., J. Biol. Screen. 19: 1266; 2014). Compounds were serially diluted in DMSO and finally in TDO reaction buffer, consisting of 100 mM NaH2PO4, pH 7.0, supplemented with 0.02% Tween-20 (cat. No. P7949; Sigma Aldrich). Recombinant TDO (Seegers, N., et al.) and all other assay components were diluted in TDO reaction buffer. 10 μl of compound solution and 20 μl of enzyme solution supplemented with 200 μM ascorbic acid were combined in the well of a black 384-well plate (cat. no. 3573; Corning, Corning, N.Y., USA), and incubated for 60 min at room temperature. Subsequently, 10 μl of 0.8 mM of the substrate L-tryptophan was added, i.e., the final concentration of L-tryptophan was 200 μM. The DMSO concentration in the assay was 0.3%. The concentration of TDO was 50 nM. Incubation was continued for 15 min at room temperature. Then, 10 μl of NFK Green™ (NTRC, Oss, The Netherlands) was added, the plate was sealed, and the reaction was developed for 3 hours at 37° C. To determine the production of N-formyl kynurenine (NFK), the seal was removed and fluorescence was read on an EnVision multimode reader (Perkin Elmer, Waltham, Mass., USA). IC50 were calculated using XLfit™ software (ID Business Solutions, Ltd., Surrey, U.K.).

CYP2D6, sequence (P10635 whole entry): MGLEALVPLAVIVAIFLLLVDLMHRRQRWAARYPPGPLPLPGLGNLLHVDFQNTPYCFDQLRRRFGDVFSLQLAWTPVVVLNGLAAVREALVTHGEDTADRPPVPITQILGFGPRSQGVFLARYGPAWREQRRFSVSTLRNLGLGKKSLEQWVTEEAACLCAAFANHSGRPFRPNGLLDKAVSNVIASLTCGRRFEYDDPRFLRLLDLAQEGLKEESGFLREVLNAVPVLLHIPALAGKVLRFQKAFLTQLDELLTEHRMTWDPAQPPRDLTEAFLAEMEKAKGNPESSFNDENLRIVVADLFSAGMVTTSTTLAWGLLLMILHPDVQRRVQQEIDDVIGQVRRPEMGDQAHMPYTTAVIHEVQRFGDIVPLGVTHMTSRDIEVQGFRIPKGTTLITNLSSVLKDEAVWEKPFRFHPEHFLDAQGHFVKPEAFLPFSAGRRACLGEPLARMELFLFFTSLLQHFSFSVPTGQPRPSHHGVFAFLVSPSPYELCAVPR
CYP3A4, sequence (P08684 whole entry): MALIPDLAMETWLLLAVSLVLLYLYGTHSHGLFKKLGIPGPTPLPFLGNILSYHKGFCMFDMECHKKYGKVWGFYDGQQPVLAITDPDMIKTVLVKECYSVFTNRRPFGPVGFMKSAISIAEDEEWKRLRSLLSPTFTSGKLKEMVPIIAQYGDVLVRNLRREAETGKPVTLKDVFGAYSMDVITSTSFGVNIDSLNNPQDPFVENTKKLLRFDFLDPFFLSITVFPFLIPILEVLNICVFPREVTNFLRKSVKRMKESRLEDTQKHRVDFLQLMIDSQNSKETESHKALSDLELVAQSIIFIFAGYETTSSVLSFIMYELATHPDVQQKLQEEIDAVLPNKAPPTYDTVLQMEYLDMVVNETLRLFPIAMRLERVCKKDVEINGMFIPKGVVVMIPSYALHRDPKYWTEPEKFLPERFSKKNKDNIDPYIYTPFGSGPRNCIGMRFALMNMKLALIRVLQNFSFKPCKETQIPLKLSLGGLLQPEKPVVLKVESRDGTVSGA

| Compound | IC50 [1] [µM] | IC50 [2] [µM] | IC50 [3] [µM] |
| --- | --- | --- | --- |
| C[C@H](O)CC(=O)Nc1ccc(-c2c[nH]c3cc(F)ccc23)cc1 [Example 34, (3S)—N-[4-(6-fluoro-1H-indol-3-yl)phenyl]-3-hydroxy-butanamide] | > 10 | > 10 | < 1 |
| CCNCC(=O)Nc1ccc(-c2c[nH]c3cc(F)ccc23)cc1 [Example 29, 2-(Ethylamino)-N-[4-(6-fluoro-1H-indol-3-yl)phenyl]acetamide] | > 10 | > 10 | < 1 |
| CN(C)C(=O)Nc1ccc(-c2c[nH]c3cc(F)ccc23)cc1 [Example 7, 3-[4-(6-Fluoro-1H-indol-3-yl)phenyl]-1,1-dimethyl-urea] | > 10 | > 10 | 1 to 5 |
| Cc1cc(C(=O)N[C@H]2CCCNC2)ccc1-c1c[nH]c2cc(F)ccc12 [Example 130, 4-(6-Fluoro-1H-indol-3-yl)-3-methyl-N-[(3S)-3-piperidyl]benzamide] | 5 to 10 | > 10 | < 1 |
| O=C(CC1(O)CCCC1)Nc1ccc(-c2c[nH]c3cc(F)ccc23)cc1 [Example 98, N-[4-(6-fluoro-1H-indol-3-yl)phenyl]-2-(1-hydroxycyclopentyl)acetamide] | > 10 | > 10 | < 1 |
| CN1CC(C(=O)Nc2ccc(-c3c[nH]c4cc(F)ccc34)cc2)CCC1=O (centres unmarked) [Example 108, N-[4-(6-fluoro-1H-indol-3-yl)phenyl]-1-methyl-6-oxo-piperidine-3-carboxamide] | > 10 | > 10 | 1 to 5 |
| COCC(C)C(=O)Nc1ccc(-c2c[nH]c3cc(F)ccc23)cc1 (centres unmarked) [Example 33, N-[4-(6-fluoro-1H-indol-3-yl)phenyl]-3-methoxy-2-methyl-propanamide] | > 10 | > 10 | < 1 |
| Nc1ccn(C(=O)c2ccc(-c3c[nH]c4cc(F)ccc34)cc2)n1 [Example 85, (3-Aminopyrazol-1-yl)-[4-(6-fluoro-1H-indol-3-yl)phenyl]methanone] | > 10 | 5 to 10 | 1 to 5 |
| CCOC(=O)N1CCCC(NC(=O)c2ccc(-c3c[nH]c4cc(F)ccc34)cc2)C1 (centres unmarked) [Example 121, Ethyl 3-[[4-(6-fluoro-1H-indol-3-yl)benzoyl]amino]piperidine-1-carboxylate] | > 10 | > 10 | < 1 |
| O=C(N[C@H]1CCCNC1)c1ccc(-c2c[nH]c3ccc(F)cc23)cc1 [Example 41, 4-(5-Fluoro-1H-indol-3-yl)-N-[(3S)-3-piperidyl]benzamide] | > 10 | > 10 | < 1 |
| Cc1cc(CC(=O)Nc2ccc(-c3c[nH]c4cc(F)ccc34)cc2)no1 [Example 99, N-[4-(6-Fluoro-/H-indol-3-yl)phenyl]-2-(5-methylisoxazol-3-yl)acetamide] | > 10 | > 10 | 1 to 5 |
| Cc1cc(C(=O)N[C@H](C)CO)ccc1-c1c[nH]c2cc(F)ccc12 [Example 128, 4-(6-Fluoro-1H-indol-3-yl)-N-[(1R)-2-hydroxy-1-methyl-ethyl]-3-methyl-benzamide] | 5 to 10 | 5 to 10 | 1 to 5 |
| O=C(CC1COC1)Nc1ccc(-c2c[nH]c3cc(F)ccc23)cc1 [Example 30, N-[4-(6-fluoro-1H-indol-3-yl)phenyl]-2-(oxetan-3-yl)acetamide] | > 10 | > 10 | < 1 |
| O=C(Nc1ccc(-c2c[nH]c3cc(F)ccc23)cc1)C1CCC1(F)F (centres unmarked) [Example 101, 2,2-Difluoro-N-[4-(6-fluoro-1H-indol-3-yl)phenyl]cyclobutanecarboxamide] | > 10 | > 10 |  |
| Cc1cc(C(=O)N[C@@H](C)CO)ccc1-c1c[nH]c2cc(F)ccc12 [Example 126, 4-(6-Fluoro-1H-indol-3-yl)-N-[(1S)-2-hydroxy-1-methyl-ethyl]-3-methyl-benzamide] | 5 to 10 | 5 to 10 | 1 to 5 |
| CC(C)(O)CC(=O)Nc1ccc(-c2c[nH]c3cc(F)ccc23)cc1 [Example 35, N-[4-(6-fluoro-1H-indol-3-yl)phenyl]-3-hydroxy-3-methyl-butanamide] | > 10 | > 10 | < 1 |
| O=C(CCc1ccccc1)Nc1ccc(-c2c[nH]c3cc(F)ccc23)cc1 [Example 96, N-[4-(6-fluoro-1H-indol-3-yl)phenyl]-3-phenyl-propanamide] | > 10 | > 10 | 1 to 5 |
| CC(C)NC(=S)N1CCC[C@@H](CNC(=O)c2ccc(-c3c[nH]c4cc(F)ccc34)cc2)C1 [Example 92, 4-(6-Fluoro-1H-indol-3-yl)-N-[[(3S)-1-(isopropylcarbamothioyl)-3-piperidyl]methyl]benzamide] | > 10 | > 10 | 1 to 5 |

Continued, values first:

| IC50 [1] [µM] | IC50 [2] [µM] | IC50 [3] [µM] | Compound |
| --- | --- | --- | --- |
| 5 to 10 | > 10 | < 1 | O=C(NOC(CO)CO)c1ccc(-c2c[nH]c3cc(F)ccc23)cc1 [Example 65, 4-(6-Fluoro-1H-indol-3-yl)-N-[2-hydroxy-1-(hydroxymethyl)ethoxy]benzamide] |
| > 10 | > 10 | < 1 | N#CCC(=O)Nc1ccc(-c2c[nH]c3cc(F)ccc23)cc1 [Example 32, 2-Cyano-N-[4-(6-fluoro-1H-indol-3-yl)phenyl]acetamide] |
| > 10 | > 10 | < 1 | COC(=O)CNC(=O)c1ccc(-c2c[nH]c3cc(F)ccc23)cc1 [Example 138, Methyl 2-[[4-(6-fluoro-1H-indol-3-yl)benzoyl]amino]acetate] |
| > 10 | > 10 | < 1 | C[C@@H](CO)NC(=O)c1ccc(-c2c[nH]c3ccc(F)cc23)cc1 [Example 40, 4-(5-Fluoro-1H-indol-3-yl)-N-[(1S)-2-hydroxy-1-methyl-ethyl]benzamide] |
| 5 to 10 | > 10 | < 1 | O=C(NOC[C@H](O)CO)c1ccc(-c2c[nH]c3cc(F)ccc23)cc1 [Example 67, N-[(2R)-2,3-dihydroxypropoxy]-4-(6-fluoro-1H-indol-3-yl)benzamide] |
| > 10 | > 10 | < 1 | CCCC(C)NC(=O)c1ccc(-c2c[nH]c3cc(F)ccc23)cc1 (centres unmarked) [Example 22, 4-(6-Fluoro-1H-indol-3-yl)-N-(1-methylbutyl)benzamide] |
| > 10 | > 10 | < 1 | C[C@H](CO)NC(=O)c1ccc(-c2c[nH]c3ccc(F)cc23)cc1 [Example 37, 4-(5-Fluoro-1H-indol-3-yl)-N-[(1R)-2-hydroxy-1-methyl-ethyl]benzamide] |
| > 10 | > 10 | < 1 | NCCNC(=O)c1ccc(-c2c[nH]c3cc(F)ccc23)cc1 [Example 90, N-(2-aminoethyl)-4-(6-fluoro-1H-indol-3-yl)benzamide] |
| > 10 | > 10 | < 1 | O=C(NCC1CC(F)(F)C1)c1ccc(-c2c[nH]c3cc(F)ccc23)cc1 [Example 9, N-[(3,3-difluorocyclobutyl)methyl]-4-(6-fluoro-1H-indol-3-yl)benzamide] |
| > 10 | > 10 | < 1 | CNC(=O)Nc1ccc(-c2c[nH]c3cc(F)ccc23)cc1 [Example 5, 1-[4-(6-Fluoro-1H-indol-3-yl)phenyl]-3-methyl-urea] |
| > 10 | > 10 | < 1 | COC(=O)[C@@H](C)NC(=O)c1ccc(-c2c[nH]c3cc(F)ccc23)cc1 [Example 18, Methyl (2R)-2-[[4-(6-fluoro-1H-indol-3-yl)benzoyl]amino]propanoate] |
| > 10 | > 10 | < 1 | O=C(NCC(F)(F)F)c1ccc(-c2c[nH]c3ccc(F)cc23)cc1 [Example 39, 4-(5-Fluoro-1H-indol-3-yl)-N-(2,2,2-trifluoroethyl)benzamide] |
| > 10 | > 10 | 1 to 5 | O=C(NCC1(O)CCCCC1)c1ccc(-c2c[nH]c3cc(F)ccc23)cc1 [Example 89, 4-(6-Fluoro-1H-indol-3-yl)-N-[(1-hydroxycyclohexyl)methyl]benzamide] |
| > 10 | > 10 | 1 to 5 | CCNC(=O)Nc1ccc(-c2c[nH]c3cc(F)ccc23)cc1 [Example 6, 1-Ethyl-3-[4-(6-fluoro-1H-indol-3-yl)phenyl]urea] |
| 5 to 10 | > 10 | < 1 | O=C(NC[C@H]1CCNC1)c1ccc(-c2c[nH]c3cc(F)ccc23)cc1 [Example 91, 4-(6-Fluoro-1H-indol-3-yl)-N-[[(3S)-pyrrolidin-3-yl]methyl]benzamide] |

From patent publication US10689343B2, “Inhibitors of tryptophan 2,3-dioxygenase” (NETHERLANDS TRANSLATIONAL RESEARCH CENTER B.V., priority 2016, dated 2020)
